According to patent publication US6645490B2, “Chimeric proteins with cell-targeting specificity and apoptosis-inducing activities” (priority 1998, dated 2003):

Key:
[1] = test system: Human peripheral blood lymphocytes; test: Assay for identifying apoptotic cells, FACS of fresh lymphocytes; assay type: cell-based; design: unit not given here; conditions: for M1-2 / M1 / M2: Experiment No. 1; for M1 / M2 / UL / UR: mean of duplicates; for UL + UR / UL / UR: Experiment No. 2
Experimental: Human peripheral blood lymphocytes from healthy donors were separated using Ficoll-Isopaque gradient (1.077) (Pharmacia) and used immediately. Lymphocytes were cultured in 5% CO2 in air in RPMI 1640 medium supplemented with 10% fetal calf serum, 200 μg/ml L-glutamate, 50 μg/ml penicillin, 50 μg/ml streptomycin, 50 μg/ml glutamine and 5×10^−5 M 2-β mercaptoethanol. Increasing concentrations of IL2-Bax (insoluble fraction, 6M Gu-HCl treated) were added to the lymphocytes for 22 hr. Cells were then stained with:
A. Propidium Iodide (PI, 3.5 μg/ml)
B. Propidium Iodide with a detergent for measuring cell cycle (0.7 ml of the PI buffer: 50 μg/ml PI, 0.1% Nacitrate, 0.1% Triton×100, were added to a cell pellet of ˜10^6 cells). Cells were then analyzed by FACS.

HUT102 cells [2] = test: Cytotoxicity assay, [3H] leucine incorporation (inhibition of protein synthesis); assay type: cell-based, human; conditions: HUT102, IL2R-expressing; FIG. 5A
Experimental: (§1) Cells (10^4 in 0.2 ml culture medium) were seeded in 96-well microplates, followed by the addition of various concentrations of the chimeric protein (diluted with 0.25% BSA in PBS). After a 24 hour incubation, [^3H] leucine (2-5 uci/well) were added for 6-13 hr. The plates were then stored at −70° C. for several hours, followed by quick thawing at 37° C. This step was omitted with targets cells growing in suspension. The cells were harvested on filters and the incorporated radioactivity was measured with a β counter. Results were expressed as the percent incorporation of the control experiments in which the cells were not exposed to any protein. All assays were carried out in triplicates.
(§2) The cytotoxic activity of the IL2-Bax chimeric protein was tested on HUT102 and MT-1 cells (human T-cell lines), and 2B4 cells (mouse T-cells); all known to express the high affinity receptor for IL2, by a quantitative assay, in which inhibition of protein synthesis was measured. The soluble and insoluble fractions generated from treatment under three different conditions were tested in cytotoxicity assays as described by Lorberboum-Galski et al. (1988, J. Biol. Chem. 263:18650-18656). […] This may be attributed to the different number of IL2R expressed on each cell line. […]

MT-1 cells = test: as above; assay type: cell-based, human; conditions: MT-1, IL2R-expressing; FIG. 5A
Experimental: as §1, §2

2B4 cells = test: as above; assay type: cell-based, mouse; conditions: 2B4, IL2R-expressing; FIG. 5A
Experimental: as §1, §2

CEM cells [3] = test: as above; assay type: cell-based, human; conditions: lacking the IL2R, FIG. 5B
Experimental: as §1
(§3) The effects of IL2-Bax were also tested on various IL2R negative cells: CEM cells (a human T-cell line lacking the IL2R) and Km3 (a human non-T, non-B stem cell line). […] Since the fraction treated with Gu-HCl was active without any non-specific cytotoxicity, this fraction was further used in subsequent experiments.

Km3 = test: as above; assay type: cell-based, human; conditions: Km3, IL2R negative; FIG. 5B
Experimental: as §1, §3

CEM cells [4] = test: Assay for identifying apoptotic cells, FACS (PI fluorescence of nuclei); assay type: cell-based, human; conditions: CEM cells lacking IL2R expression; FIGS. 9A-9C
Experimental: (§4) HUT102 cells (target T cells) and CEM cells (non-target T cells) were incubated overnight with increasing concentrations of IL2-Bax. The 200×g centrifuged cell pellet was fixed in 2 ml cold 70% ethanol at 4° C. for 60 min. The cells were then centrifuged, washed in 1 ml PBS and resuspended in 0.5 ml PBS. 0.5 ml RNAse (Type I-A, Sigma, St. Louis, Mo., 1 mg/ml in PBS) was added to the sample, followed by gentle mixing with 1 ml PI (Sigma, 100 μg/ml PBS) solution. The mixed cells were incubated in the dark at room temperature for 15 min. and kept at 4° C. in the dark until measured. The PI fluorescence of the individual nuclei was measured using FACS flow cytometer. The forward scatter and side scatter of particles were simultaneously measured. Cell debris were excluded from analysis by appropriately raising the forward scatter threshold (Nicoletti et al., 1991, J. Immunol. Meth. 139:271-279).

HUT102 cells [5] = test: as above; assay type: cell-based, human; conditions: highest concentration tested, overnight
Experimental: as §4

`C[C@@H]1C[C@H]2[C@@H]3CCC4=CC(=O)C=C[C@]4(C)[C@@]3(F)[C@@H](O)C[C@]2(C)[C@@]1(O)C(=O)CO` [dexamethasone, reference compound] was tested. Which M1-2 ([1]; dexamethasone (10^-7 M)) did it give?
The M1-2 was 6.7.

And the M1 ([1]; dexamethasone (10^-7 M))?
The M1 was 9.5.

What about the M2 ([1]; dexamethasone (10^-7 M)) of the same compound?
The M2 was 2.8.

With IL2-Bax as the compound, how does the “Cytotoxic activity (inhibition of protein synthesis)” value (HUT102 cells [2]) read?
The value was “responsive to the chimeric protein in a dose dependent manner”.

What about the “Cytotoxic activity (inhibition of protein synthesis)” value (MT-1 cells) of the same compound?
The value was “responsive to the chimeric protein in a dose dependent manner”.

What about the “Cytotoxic activity (inhibition of protein synthesis)” value (2B4 cells) of the same compound?
The value was “responsive to the chimeric protein in a dose dependent manner”.

What about the “Cytotoxic activity (inhibition of protein synthesis)” value (CEM cells [3]) of the same compound?
The value was “unaffected”.

What about the “Cytotoxic activity (inhibition of protein synthesis)” value (Km3) of the same compound?
The value was “unaffected”.

What about the M1-2 ([1]; 1 μg, 22 hr) of the same compound?
The M1-2 was 13.5.

And the M1 ([1]; 1 μg, 22 hr)?
Its M1 is 17.5.

And the M2 ([1]; 1 μg, 22 hr)?
The M2 was 4.

And the M1-2 ([1]; 5 μg, 22 hr)?
Its M1-2 is 20.

And the M1 ([1]; 5 μg, 22 hr)?
Its M1 is 24.3.

And the M2 ([1]; 5 μg, 22 hr)?
The M2 was 4.3.

And the M1-2 ([1]; 10 μg, 22 hr)?
Its M1-2 is 35.

What about the M1 ([1]; 10 μg, 22 hr) of the same compound?
The M1 was 42.1.

What about the M2 ([1]; 10 μg, 22 hr) of the same compound?
The M2 was 9.1.

What about the “UL + UR” value ([1]; 1 μg, 22 hr) of the same compound?
The value was 10.54.

What about the UL ([1]; 1 μg, 22 hr) of the same compound?
The UL was 4.98.

What about the UR ([1]; 1 μg, 22 hr) of the same compound?
Its UR is 5.56.

And the “UL + UR” value ([1]; 10 μg, 22 hr)?
The value was 31.55.

And the UL ([1]; 10 μg, 22 hr)?
The UL was 14.71.

What about the UR ([1]; 10 μg, 22 hr) of the same compound?
The UR was 16.84.

What about the “Increase in the apoptotic cell population” value (CEM cells [4]) of the same compound?
The value was “did not show an increase in the apoptotic cell population”.

What about the “Increase in the percentage of the apoptotic-cell population (sub-G1, M1)” value (HUT102 cells [5]) of the same compound?
Its value is 3.6 fold.
